Measured values as given in patent US10889556B2, “Compositions and methods for inhibiting influenza RNA polymerase PA endonuclease” (The Regents of the University of California, priority 2016, dated 2021).
Read-outs that look alike come from different tables or passages of the source.

Molecular target: influenza PA endonuclease (Influenza A virus, UniProt C3W5S0)
Assay: biochemical
Design: species or system Pandemic H1N1 influenza A

Question: How did the IC50 turn out when `CNC(=O)c1occc(=O)c1O` [A11] was run?
Answer: Its IC50 is 4100 nM.

Question: For `CNC(=O)c1[nH]ccc(=O)c1O` [B4], which IC50 is on record?
Answer: Its IC50 is 13000 nM.

Question: `Cc1occ(O)c(=O)c1C(=O)NCCc1ccccc1` [Compound 13, 5-Hydroxy-2-methyl-4-oxo-N-phenethyl-4H-pyran-3-carboxamide] was tested. Which IC50 did it give?
Answer: Its IC50 is 11300 ± 1200 nM.

Question: `COc1cccc(CNC(=O)c2c(C)occ(O)c2=O)c1` [Compound 18, 5-Hydroxy-N-(3-methoxybenzyl)-2-methyl-4-oxo-4H-pyran-3-carboxamide] was tested. Which IC50 did it give?
Answer: The IC50 was 22100 ± 600 nM.

Question: How did the IC50 turn out when `O=c1cc(CNCc2ccccc2)occ1O` [Compound 26, 2-((Benzylamino)methyl)-5-hydroxy-4H-pyran-4-one] was run?
Answer: Its IC50 is 2700 ± 400 nM.

Question: For `CS(=O)(=O)NCc1cc(=O)c(O)co1` [Compound 30], which IC50 is on record?
Answer: The IC50 was 4800 ± 700 nM.

Question: Which IC50 does the source give for `CN(Cc1cc(=O)c(O)co1)c1ccc(F)cc1` [Compound 39, 2-(((4-Fluorophenyl)(methyl)amino)methyl)-5-hydroxy-4H-pyran-4-one] here?
Answer: Its IC50 is 1800 ± 200 nM.

Question: `CN(Cc1cc(=O)c(O)co1)c1cccc(F)c1` [Compound 40, 2-(((3-Fluorophenyl)(methyl)amino)methyl)-5-hydroxy-4H-pyran-4-one] was tested. Which IC50 did it give?
Answer: Its IC50 is 3200 ± 100 nM.

Question: For `CN(Cc1cc(=O)c(O)co1)c1ccncc1` [Compound 41, 5-Hydroxy-2-((methyl(pyridin-4-yl)amino)methyl)-4H-pyran-4-one], which IC50 is on record?
Answer: Its IC50 is over 100000 nM.

Question: Which IC50 does the source give for `Cc1c(O)c(=O)ccn1-c1ccccc1` [Compound 45, 3-Hydroxy-2-methyl-1-phenylpyridin-4(1H)-one] here?
Answer: Its IC50 is 18000 ± 2000 nM.

Question: With `Cc1c(O)c(=O)ccn1C1CCCCC1` [Compound 48, 1-Cyclohexyl-3-hydroxy-2-methylpyridin-4(1H)-one] as the compound, how does the IC50 read?
Answer: Its IC50 is 14000 ± 3000 nM.

Question: `Cc1cc(=O)c(O)cn1C1CCOCC1` [Compound 51] was tested. Which IC50 did it give?
Answer: Its IC50 is 730 ± 70 nM.

Question: Which results are given for `COc1cc(C)c(C(=O)O)cc(O)c1=O` [Compound 105]?
Answer: IC50: 180 nM; LE: 0.66

Question: Which results are given for `O=C(O)c1ccc(O)c(O)c1` [Compound 107]?
Answer: IC50: 220 nM; LE: 0.83

Question: `CC(C)c1cccc(=O)c(O)c1` [E4] was tested. Which IC50 did it give?
Answer: The IC50 was 11000 nM.

Question: How did the IC50 turn out when `CCOC(=O)c1c(C)n(-c2ccccc2)cc(O)c1=O` [compound 67, Ethyl 5-hydroxy-2-methyl-4-oxo-1-phenyl-1,4-dihydropyridine-3-carboxylate] was run?
Answer: Its IC50 is 5300 ± 400 nM.

Question: With `CCOC(=O)c1c(C)n(-c2ccc(Oc3ccccc3)cc2)cc(O)c1=O` [compound 68, Ethyl 5-hydroxy-2-methyl-4-oxo-1-(4-phenoxyphenyl)-, 4-dihydropyridine-3-carboxylate] as the compound, how does the IC50 read?
Answer: The IC50 was 5200 ± 800 nM.

Question: `O=C(O)c1[nH]c(Br)cc(=O)c1O` [compound 131, 6-Bromo-3-hydroxy-4-oxo-1,4-dihydropyridine-2-carboxylic acid] was tested. Which IC50 (IC50 value) did it give?
Answer: The IC50 was 25 nM.

Question: How did the IC50 turn out when `O=c1cc(Br)[nH]c(-c2nnn[nH]2)c1O` [compound 133, 6-Bromo-3-hydroxy-2-(1H-tetrazol-5-yl)pyridin-4(1H)-one] was run?
Answer: Its IC50 is 63 nM.

Question: `O=C(O)c1[nH]c(-c2ccccc2)cc(=O)c1O` [compound 142, 3-Hydroxy-4-oxo-6-phenyl-1,4-dihydropyridine-2-carboxylic acid] was tested. Which IC50 did it give?
Answer: Its IC50 is 5.6 nM.

Question: `O=C(O)c1[nH]c(-c2ccc(Oc3ccccc3)cc2)cc(=O)c1O` [compound 143, 3-Hydroxy-4-oxo-6-(4-phenoxyphenyl)-1,4-dihydropyridine-2-carboxylic acid] was tested. Which IC50 did it give?
Answer: The IC50 was 22 nM.

Question: For `O=C(O)c1ccc(-c2cc(=O)c(O)c(C(=O)O)[nH]2)cc1` [compound 144, 6-(4-carboxyphenyl)-3-hydroxy-4-oxo-1,4-dihydropyridine-2-carboxylic acid], which IC50 is on record?
Answer: The IC50 was 1.6 nM.

Question: `O=C(O)c1cccc(-c2cc(=O)c(O)c(C(=O)O)[nH]2)c1` [compound 145, 6-(3-carboxyphenyl)-3-hydroxy-4-oxo-1,4-dihydropyridine-2-carboxylic acid] was tested. Which IC50 did it give?
Answer: The IC50 was 2 nM.

Question: With `Cc1cccc(-c2cc(=O)c(O)c(C(=O)O)[nH]2)c1` [compound 146, 3-hydroxy-4-oxo-6-(m-tolyl)-1,4-dihydropyridine-2-carboxylic acid] as the compound, how does the IC50 read?
Answer: Its IC50 is 4.8 nM.

Question: How did the IC50 turn out when `O=C(O)c1[nH]c(-c2ccc(-c3nnn[nH]3)cc2)cc(=O)c1O` [compound 148, 6-(4-(1H-tetrazol-5-yl)phenyl)-3-hydroxy-4-oxo-1,4-dihydropyridine-2-carboxylic acid] was run?
Answer: The IC50 was 1.9 nM.

Question: `O=c1cc[nH]c(-c2ncco2)c1O` [compound 151] was tested. Which IC50 did it give?
Answer: Its IC50 is 71 nM.

Question: Which IC50 does the source give for `O=c1cccccc1O` [compound 201] here?
Answer: The IC50 was 8800 nM.

Question: Which IC50 does the source give for `Cc1cc(O)c(=O)c(O)cc1-c1ccccc1` [compound 213, 2,7-Dihydroxy-4-methyl-5-phenylcyclohepta-2,4,6-trien-1-one] here?
Answer: The IC50 was 5 nM.
